System: tetanus toxoid
Design: species or system ICR mice
Details: mouse, in vivo

CCCCCCCCCCCCCCCC(=O)OC[C@H](COP(=O)([O-])OCC[N+](C)(C)C)OC(=O)CCCCCCCCCCCCCCC [DPPC, 1,2-Dipalmitoyl-sn-glycero-3-phosphocholine]
Anti-Tetanus Toxoid Titer^-1 Fecal Extract d7P2° IgA: <50 | Anti-Tetanus Toxoid Titer^-1 Fecal Extract d7P2° IgG: <50 | Anti-Tetanus Toxoid Titers^-1 IgG1: 25,600 | Anti-Tetanus Toxoid Titers^-1 IgG2a: 1,600 | Anti-Tetanus Toxoid Titers^-1 IgG2b: 3,200 | Serum Anti-Tetanus Toxoid Titer^-1 IgA-Specific d10P2°: 100 | Serum Anti-Tetanus Toxoid Titer^-1 IgA-Specific d10P3°: 200 | Serum Anti-Tetanus Toxoid Titer^-1 IgG-Specific d10P2°: 6,400 | Serum Anti-Tetanus Toxoid Titer^-1 IgG-Specific d10P3°: 6,400

Source: patent EP0971739B1 (priority 1997, dated 1998)
